Results published in article PMC11589570, “Critical assessment of LC3/GABARAP ligands used for degrader development and ligandability of LC3/GABARAP binding pockets” (Nature Communications, 2024).
Values joined by “and” are separate entries in the source; they are usually repeats but may differ in a detail not shown here. Equal entries are not always repeated.

Columns and labels:
Assay type in all cases: cell-based
[1] = system: RPE-1 GFP-LC3B-RPF-LC3∆G reporter cell line; assay: Autophagy flux assay; details: rebuttal letter
Source text: LC3/GABARAP in vitro, but no attempts are made to replicate the previously reported cellular activity of these compounds. It would be beneficial to know whether these compounds have any effect on autophagy in the authors’ hands, and therefore could act by alternative mechanisms, or whether they […]
Response: We were very concerned that the ligands used for ATTEC development might induce general toxicity in cell lines, as they are based on drugs used in oncology (such as the kinesin inhibitor 10O5) and the isoxazole scaffold often used in the development of multi-targeted kinase inhibitors. However, we have now investigated compounds 1-4 in autophagy flux assays using the RPE-1 GFP-LC3B-RPF-LC3∆G reporter cell line (single clone) as […]
reported in [PMID:37558952].
(RR_Figure 6). The authors of the first manuscript reporting these ligands [PMID: 31666698]
However, due to the potent activity of 8F20 on KIF11, which will have profound effects on cell trafficking and growth, and DCAF11 (AN1, [PMID: 38036533]), we find it unlikely that the effects on autophagy are due to LC3/GABARAP modulation. Due to the lack of target (LC3/GABARAP) binding in vitro and the […]
of this review but have excluded the data in the manuscript.
RR_figure 5: Autophagy flux measurement for 10O5 and AN2. No induction of autophagy or effects (right panels, assessed by Incucyte (Sartorius) life cell imaging) on cell growth was […]
RR_figure 6: Autophagy flux measurement for 8F20 and AN1 show changes in autophagy flux […]
It is not clear how many biological replicates have been performed. For example, the figure legends […]

[2] = system: U2OS cells; assay: Cell growth assay (IncuCyte confluence over 72 h); set-up: key to U2OS cell growth: % of well area covered by cells (confluence); details: listed as AN1
Method: Cell growth assay: Cell confluence (phase) from RPE1 (hTERT RPE-1, ATCC CLR_4000) or U2OS (ATCC, HTB-96) cell lines were monitored over time with the IncuCyte S3 (Sartiorius, Germany) in 384-well plates in 50 ul DMEM media, supplemented with 10% Fetal Bovine Serum (FBS) 1% penicillin/Streptomycin and incubated 24 h before treatment. Experiment was performed as described in Cano-Franco et al.. […] Cell confluence is represented as % of area covered by cells. Each data point represents the average ratio or confluence obtained from three individual wells of the plate.

[3] = system: RPE1 cells; assay: Cell growth assay (IncuCyte confluence over 72 h); details: for RPE1 cell growth: listed as AN1
In short: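 Phase confluence (% area covered by cells) imaged every 2 h for 72 h after compound addition; cells in DMEM/10% FBS, seeded 24 h before treatment. Controls were 0.1% DMSO, 250 nM Torin1 and 200 ng/mL Bafilomycin (final). Each point averages three wells.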

For `O=C1Nc2ccc(Br)cc2C1=Cc1cc(O)c(O)c(Br)c1` [compound 1], the “autophagy induction (autophagy flux)” value [1] was “significant autophagy activation”, the “effects on cell growth (Incucyte life cell imaging)” value [1] was “profound effects on cell growth” and the U2OS cell growth ([2]; 100 nM, time 12 h) was 35.4537 and 32.3571 and 35.5968. The U2OS cell growth ([2]; 100 nM, time 14 h) was 36.0873 and 39.0366 and 39.8543, the U2OS cell growth ([2]; 100 nM, time 16 h) was 40.1608 and 39.3939 and 40.4478 and the U2OS cell growth ([2]; 100 nM, time 18 h) was 39.1099 and 37.1872 and 41.4362. For the same compound, the U2OS cell growth ([2]; 100 nM, time 20 h) was 43.7035 and 39.6959 and 46.4166, the U2OS cell growth ([2]; 500 nM, time 10 h) was 38.9338 and 41.9757 and 41.002 and the U2OS cell growth ([2]; 500 nM, time 12 h) was 39.0148 and 42.3639 and 41.6671. For the same compound, the U2OS cell growth ([2]; 500 nM, time 14 h) was 46.8116 and 46.7871 and 49.5823, the U2OS cell growth ([2]; 500 nM, time 16 h) was 47.3468 and 53.1118 and 48.7734 and the U2OS cell growth ([2]; 500 nM, time 18 h) was 38.8125 and 47.7715 and 46.4243. The U2OS cell growth ([2]; 1 uM, time 10 h) was 48.4994 and 57.2399 and 59.5515, the U2OS cell growth ([2]; 1 uM, time 12 h) was 47.4737 and 55.8868 and 54.1029 and the U2OS cell growth ([2]; 1 uM, time 14 h) was 46.9999 and 57.1898 and 59.5195. The U2OS cell growth ([2]; 1 uM, time 16 h) was 54.858 and 68.5371 and 64.7822, the U2OS cell growth ([2]; 1 uM, time 18 h) was 48.8637 and 59.8627 and 56.3987 and the U2OS cell growth ([2]; 1 uM, time 20 h) was 55.1556. The U2OS cell growth ([2]; 3 uM, time 10 h) was 50.7422 and 64.1291 and 54.5819, the U2OS cell growth ([2]; 3 uM, time 12 h) was 47.9181 and 60.7394 and 55.125 and the U2OS cell growth ([2]; 3 uM, time 14 h) was 49.0342 and 60.5893 and 56.0885. For the same compound, the U2OS cell growth ([2]; 3 uM, time 16 h) was 57.6695 and 67.0321 and 61.6341, the U2OS cell growth ([2]; 3 uM, time 18 h) was 48.0442 and 62.2285 and 59.0264 and the U2OS cell growth ([2]; 3 uM, time 20 h) was 51.1291 and 66.3122 and 66.4452. For the same compound, the U2OS cell growth ([2]; 5 uM, time 10 h) was 55.0487 and 54.3842 and 51.4536, the U2OS cell growth ([2]; 5 uM, time 12 h) was 54.96 and 58.942 and 53.816 and the U2OS cell growth ([2]; 5 uM, time 14 h) was 49.0714 and 54.2863 and 67.0438. For the same compound, the U2OS cell growth ([2]; 5 uM, time 16 h) was 60.7907 and 61.6888 and 65.4648, the U2OS cell growth ([2]; 5 uM, time 18 h) was 57.5124 and 66.5017 and 59.7417 and the U2OS cell growth ([2]; 5 uM, time 20 h) was 63.2102 and 60.2689 and 68.651. For the same compound, the U2OS cell growth ([2]; 10 uM, time 10 h) was 59.7697 and 44.8684 and 48.7466, the U2OS cell growth ([2]; 10 uM, time 12 h) was 61.5092 and 47.1657 and 52.5139 and the U2OS cell growth ([2]; 10 uM, time 14 h) was 62.1617 and 46.5884 and 50.2783. For the same compound, the U2OS cell growth ([2]; 10 uM, time 16 h) was 65.2687 and 51.6571 and 54.5952, the U2OS cell growth ([2]; 10 uM, time 18 h) was 66.9364 and 52.1914 and 55.4238 and the U2OS cell growth ([2]; 10 uM, time 20 h) was 65.8459 and 51.6884 and 56.9826. The RPE1 cell growth ([3]; 100 nM, 10 h) was 30 and 17 and 26, the RPE1 cell growth ([3]; 100 nM, 12 h) was 33 and 18 and 27 and the RPE1 cell growth ([3]; 100 nM, 14 h) was 37 and 19 and 27. The RPE1 cell growth ([3]; 100 nM, 16 h) was 37 and 22 and 30, the RPE1 cell growth ([3]; 100 nM, 18 h) was 41 and 22 and 30 and the RPE1 cell growth ([3]; 100 nM, 20 h) was 42 and 22. The RPE1 cell growth ([3]; 500 nM, 10 h) was 40 and 23 and 25, the RPE1 cell growth ([3]; 500 nM, 12 h) was 43 and 24 and 26 and the RPE1 cell growth ([3]; 500 nM, 14 h) was 44 and 25 and 28. For the same compound, the RPE1 cell growth ([3]; 500 nM, 16 h) was 47 and 29 and 30, the RPE1 cell growth ([3]; 500 nM, 18 h) was 49 and 29 and 32 and the RPE1 cell growth ([3]; 1 uM, 10 h) was 23 and 42 and 25. For the same compound, the RPE1 cell growth ([3]; 1 uM, 12 h) was 25 and 45 and 28, the RPE1 cell growth ([3]; 1 uM, 14 h) was 26 and 48 and 29 and the RPE1 cell growth ([3]; 1 uM, 16 h) was 29 and 49 and 32. The RPE1 cell growth ([3]; 1 uM, 18 h) was 30 and 50 and 34, the RPE1 cell growth ([3]; 1 uM, 20 h) was 32 and the RPE1 cell growth ([3]; 3 uM, 10 h) was 43 and 32 and 29. For the same compound, the RPE1 cell growth ([3]; 3 uM, 12 h) was 45 and 37 and 31, the RPE1 cell growth ([3]; 3 uM, 14 h) was 48 and 37 and 32 and the RPE1 cell growth ([3]; 3 uM, 16 h) was 50 and 39 and 35. The RPE1 cell growth ([3]; 3 uM, 18 h) was 53 and 40 and 36, the RPE1 cell growth ([3]; 3 uM, 20 h) was 52 and 41 and 37 and the RPE1 cell growth ([3]; 5 uM, 10 h) was 47 and 35. For the same compound, the RPE1 cell growth ([3]; 5 uM, 12 h) was 49 and 38, the RPE1 cell growth ([3]; 5 uM, 14 h) was 53 and 38 and 42 and the RPE1 cell growth ([3]; 5 uM, 16 h) was 55 and 41 and 44. For the same compound, the RPE1 cell growth ([3]; 5 uM, 18 h) was 57 and 42 and 46, the RPE1 cell growth ([3]; 5 uM, 20 h) was 56 and 45 and 49 and the RPE1 cell growth ([3]; 10 uM, 10 h) was 47 and 35 and 32. For the same compound, the RPE1 cell growth ([3]; 10 uM, 12 h) was 51 and 37 and 33, the RPE1 cell growth ([3]; 10 uM, 14 h) was 53 and 39 and 36 and the RPE1 cell growth ([3]; 10 uM, 16 h) was 55 and 43 and 35. The RPE1 cell growth ([3]; 10 uM, 18 h) was 56 and 38 and 37, the RPE1 cell growth ([3]; 10 uM, 20 h) was 54 and 41 and 38 and the “effect on cell growth (confluence)” value ([3]; RPE1, 72 h) was “high dosage effects”.
